This note sets out measurements from patent US20230339886A1 (University of Florida Research Foundation, Incorporated, priority 2020, published 2023).

SMILES strings stand for the structures.

T1 sequence (P20393 with tags, fused parts or gaps DEL324-422): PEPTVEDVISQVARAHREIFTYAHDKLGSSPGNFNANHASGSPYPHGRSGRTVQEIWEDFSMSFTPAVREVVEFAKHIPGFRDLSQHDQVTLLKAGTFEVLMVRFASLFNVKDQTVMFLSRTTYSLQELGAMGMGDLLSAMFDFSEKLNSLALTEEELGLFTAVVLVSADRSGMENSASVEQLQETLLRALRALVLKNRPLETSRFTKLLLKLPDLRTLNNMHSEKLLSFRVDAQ
T1 sequence (Q9Y618 2335-2356 partner limits assumed): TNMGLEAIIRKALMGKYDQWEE

One test addresses T1, REV-ERBα LBD (human; residues 281-614 Δ324-422) (Homo sapiens, UniProt P20393, DEL324-422).
T1 construct: 6×Histag-REV-ERBα LBD (human; residues 281-614 Δ324-422); made in house; host or cells: Escherichia coli
Description: TR-FRET corepressor interaction assay (REV-ERBα LBD, FITC-SMRT peptide). It counts as biochemical. The settings on record: FITC-SMRT peptide, read-out: REVERBα agonism (EC50 class, FRET assay). The gist of the method: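 Compound serial dilutions (in DMSO, triplicate) incubated 2 h at 4 °C; Tb donor excited at 340 nm, emission read at 495 nm and FITC acceptor at 520 nm. TR-FRET ratio (520/495 nm) plotted against ligand concentration and fitted to a sigmoidal dose-response curve.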
On the technique in general: In TR-FRET formats the signal depends on donor and acceptor labels being close together.
As usually defined, the EC50 is the concentration that produces a half-maximal response. On to `CC(NS(=O)(=O)C12CC(C1)C2)c1cn(CC(C)(C)C)c2cc(-c3ccccc3C(F)(F)F)ccc12` (stereo not drawn) [Example 433, N-(1-(1-neopentyl-6-(2-(trifluoromethyl)phenyl)-1H-indol-3-yl)ethyl)bicyclo[1.1.1]pentane-1-sulfonamide], for which the half-maximal effective concentration (EC50) is under 500 nM. Same read-out and setting: next, `CC(C)(C)Cn1cc([C@H](NS(=O)(=O)C2CC2)C(F)(F)F)c2ccc(-c3ccccn3)cc21` [Example 469, (S)—N-(2,2,2-trifluoro-1-(1-neopentyl-6-(pyridin-2-yl)-1H-indol-3-yl)ethyl)cyclopropanesulfonamide]: 500 to 3000 nM; `CC(C)(C)Cn1cc([C@H](NS(=O)(=O)C2CCC2)C(F)(F)F)c2ccc(-c3c(F)cccc3C(F)(F)F)cc21` [Example 496, (S)—N-(2,2,2-trifluoro-1-(6-(2-fluoro-6-(trifluoromethyl)phenyl)-1-neopentyl-1H-indol-3-yl)ethyl)cyclobutanesulfonamide]: under 500 nM; `CC(C)(C)Cn1cc(C(NS(=O)(=O)C2CCC2)C2CC2)c2ccc(-c3ccccc3C(F)(F)F)cc21` (stereo not drawn) [Example 424, N-(cyclopropyl(1-neopentyl-6-(2-(trifluoromethyl)phenyl)-1H-indol-3-yl)methyl)cyclobutanesulfonamide]: under 500 nM.

Turning to `CC(C)(C)Cn1cc([C@H](NS(=O)(=O)C2CC2)C(F)(F)F)c2cc(F)c(-c3cccc4c3CCCC4)cc21` [Example 477, N-[(1S)-1-[1-(2,2-dimethylpropyl)-5-fluoro-6-tetralin-5-yl-indol-3-yl]-2,2,2-trifluoro-ethyl]cyclopropanesulfonamide], the concentration for a half-maximal effect (EC50) lay within 500 to 3000 nM.

As for `Cc1cccc(C(F)(F)F)c1-c1ccc2c([C@H](NS(=O)(=O)C3CC3)C(F)(F)F)cn(CC(C)(C)C)c2c1` [Example 463, (S)—N-(2,2,2-trifluoro-1-(6-(2-methyl-6-(trifluoromethyl)phenyl)-1-neopentyl-1H-indol-3-yl)ethyl)cyclopropanesulfonamide], the EC50 is under 500 nM. Still for that read-out and setting: then `Cc1ccc2c([C@H](NS(=O)(=O)C3CCC3)C(F)(F)F)cn(CC(C)(C)C)c2c1` [Example 500, (S)—N-(2,2,2-trifluoro-1-(6-methyl-1-neopentyl-1H-indol-3-yl)ethyl)cyclobutanesulfonamide], with under 500 nM. Still for that read-out and setting: then `CC(C)(C)Cn1cc([C@H](NS(=O)(=O)C2CCOC2)C(F)(F)F)c2cc(F)c(-c3ccccc3C(F)(F)F)cc21` (stereo partly drawn) [Example 461, N—((S)-2,2,2-trifluoro-1-(5-fluoro-1-neopentyl-6-(2-(trifluoromethyl)phenyl)-1H-indol-3-yl)ethyl)tetrahydrofuran-3-sulfonamide], with over 3000 nM.

Staying with this test, now noted: Table 2, read-out: REVERBα agonism (EC50 class, FRET assay).
For `CC(CO)(CCl)Cn1cc([C@H](NS(=O)(=O)C2CC2)C(F)(F)F)c2cc(F)c(-c3ccccc3C(F)(F)F)cc21` (stereo partly drawn) [Example 404, N-[(1S)-1-[1-[2-(chloromethyl)-3-hydroxy-2-methyl-propyl]-5-fluoro-6-[2-(trifluoromethyl)phenyl]indol-3-yl]-2,2,2-trifluoro-ethyl]cyclopropanesulfonamide], the concentration giving a half-maximal response (EC50) is 500 to 3000 nM. For `CC(C)Cn1cc(CNS(=O)(=O)C(C)C)c2cc(F)c(-c3ccncc3Cl)cc21` [Compound 268], the EC50 is under 500 nM.

Consider `CC(C)Cn1cc(CCNS(=O)(=O)N(C)C)c2ccc(-c3cccc(S(C)(=O)=O)c3)cc21` [Example 60, N-{2-[6-(3-methylsulfonylphenyl)-1-(2-methylpropyl)-1H-indol-3-yl]ethyl}-N,N-dimethylsulfuric diamide], for which the EC50 fell in the range of 500 to 3000 nM. As for `CC(C)S(=O)(=O)n1cc(CCNS(=O)(=O)N(C)C)c2ccc(-c3ccncc3)cc21` [Example 130, N′-{2-[6-(pyridin-4-yl)-1-isopropylsulfonyl-1H-indol-3-yl]ethyl}-N,N-dimethylsulfuric diamide], the EC50 is over 3000 nM. With `CC(C)(C)Cn1cc([C@H](NS(=O)(=O)C2CC2)C(F)(F)F)c2cc(F)c(-c3ccn[nH]3)cc21` [Example 380, N-[(1S)-1-[1-(2,2-dimethylpropyl)-5-fluoro-6-(1H-pyrazol-5-yl)indol-3-yl]-2,2,2-trifluoro-ethyl]cyclopropanesulfonamide], the EC50 is under 500 nM.

Consider `CC(C)Cn1cc(CCNS(=O)(=O)N(C)C)c2ccc(C#N)cc21` [Compound 96, 3-{2-[(dimethylsulfamoyl)amino]ethyl}-1-(2-methylpropyl)-1H-indole-6-carbonitrile], for which the concentration giving a half-maximal response (EC50) was under 500 nM. With `CC(C)Cn1cc(C(CS(C)(=O)=O)C(F)(F)F)c2ccc(-c3ccccc3C(F)(F)F)cc21` (stereo not drawn) [Example 407, 1-isobutyl-3-(1,1,1-trifluoro-3-(methylsulfonyl)propan-2-yl)-6-(2-(trifluoromethyl)phenyl)-1H-indole], the EC50 is over 3000 nM.

Regarding `CC(C)Cn1cc(CCNS(=O)(=O)N(C)C)c2ccc(-c3cc(F)cc(F)c3)cc21` [Example 54, N-{2-[6-(3,5-difluorophenyl)-1-(2-methylpropyl)-1H-indol-3-yl]ethyl}-N,N-dimethyl-sulfuric diamide], the EC50 was in the range of 500 to 3000 nM. Same read-out and setting: then `CC(C)Cn1cc(CCN(C)S(=O)(=O)N(C)C)c2ccc(N(C)C)cc21` [Example 114, N′-{2-[6-N,N-dimethylamino-1-(2-methylpropyl)-1H-indol-3-yl]ethyl}-N′-methyl-N,N-dimethyl sulfuric diamide], with 500 to 3000 nM. As for `CCNc1ccc2c(CCNS(=O)(=O)N(C)C)cn(CC(C)C)c2c1` [Example 112, N′-{2-[6-ethylamino-1-(2-methylpropyl)-1H-indol-3-yl]ethyl}-N,N-dimethylsulfuric diamide], the EC50 was over 3000 nM. Consider `CCn1cc(CCNS(=O)(=O)N(C)C)c2ccc(-c3ccncc3)cc21` [Example 132, N′-{2-[6-(pyridin-4-yl)-1-ethyl-1H-indol-3-yl]ethyl}-N,N-dimethylsulfuric diamide], for which the 50% effective concentration (EC50) is over 3000 nM.

In the case of `CC(C)(C)Cn1cc(CCNS(=O)(=O)C2CC2)c2ccc(-c3cccc(C(F)(F)F)c3C#N)cc21` [Example 399, N-(2-(6-(2-cyano-3-(trifluoromethyl)phenyl)-1-neopentyl-1H-indol-3-yl)ethyl)cyclopropanesulfonamide], the EC50 was over 3000 nM. The same measure, in the same setting: next, `CC(c1ccccc1)n1cc(CCNS(=O)(=O)N(C)C)c2ccc(Br)cc21` (stereo not drawn) [Example 159, ({2-[6-bromo-1-(1-phenylethyl)-1H-indol-3-yl]ethyl}sulfamoyl)dimethylamine]: 500 to 3000 nM.

With `CC(C)n1cc(CCNS(=O)(=O)N(C)C)c2ccc(-c3ccncc3)cc21` [Example 129, N′-{2-[6-(pyridin-4-yl)-1-isopropyl-1H-indol-3-yl]ethyl}-N,N-dimethylsulfuric diamide], the EC50 is 500 to 3000 nM.

As to `CC(C)Cn1cc(CCN(C)S(=O)(=O)N(C)C)c2ccc(C#N)cc21` [Compound 122, 3-{2-[(dimethylsulfamoyl)(methyl)amino]ethyl}-1-(2-methylpropyl)-1H-indole-6-carbonitrile], the concentration giving a half-maximal response (EC50) was over 3000 nM.

Regarding `CN(C)S(=O)(=O)NCCc1cn(Cc2ccccc2Br)c2cc(-c3ccncc3)ccc12` [Example 140, N′-{2-[6-(pyridin-4-yl)-1-(2-bromobenzyl)-1H-indol-3-yl]ethyl}-N,N-dimethylsulfuric diamide], the concentration for a half-maximal effect (EC50) is over 3000 nM. On to `CC(C)Cn1cc([C@H](NS(=O)(=O)N(C)C)C(F)(F)F)c2cc(F)c(-c3ccccc3C(F)(F)F)cc21` [Example 320, dimethyl({[(1S)-2,2,2-trifluoro-1-[5-fluoro-1-(2-methylpropyl)-6-[2-(trifluoromethyl)phenyl]-1H-indol-3-yl]ethyl]sulfamoyl})amine], for which the 50% effective concentration (EC50) is under 500 nM. Same read-out and setting: then `CC(C)(C)Cc1cn(CCNS(=O)(=O)C2CC2)c2ccc(C(F)(F)F)cc12` [Example 292, N-(2-(3-neopentyl-5-(trifluoromethyl)-1H-indol-1-yl)ethyl)cyclopropanesulfonamide], with 500 to 3000 nM; and `CC(C)Cn1cc([C@H](NS(=O)(=O)C2CC2)C(F)(F)F)c2ccc(-c3ccc(F)cc3)cc21` [Example 308, (S)—N-(2,2,2-trifluoro-1-(6-(4-fluorophenyl)-1-isobutyl-1H-indol-3-yl)ethyl)cyclopropanesulfonamide], with 500 to 3000 nM; and `Cc1ccc(-c2ccc3c(c2)c(CC(C)(C)C)cn3CCNS(=O)(=O)C2CC2)c(C(F)(F)F)c1` [Example 402, N-(2-(5-(4-methyl-2-(trifluoromethyl)phenyl)-3-neopentyl-1H-indol-1-yl)ethyl)cyclopropanesulfonamide], with under 500 nM. Still for that read-out and setting: next, `CC(C)(C)Cn1cc([C@H](NS(=O)(=O)C2CC2)C(F)(F)F)c2cc(F)c(-c3ccccc3)cc21` [Example 350, (S)—N-(2,2,2-trifluoro-1-(5-fluoro-1-neopentyl-6-phenyl-1H-indol-3-yl)ethyl)cyclopropanesulfonamide]: 500 to 3000 nM. Consider `CN(C)S(=O)(=O)NCCc1cn(CC(C)(C)C)c2cc(Br)ccc12` [Example 165, ({2-[6-bromo-1-(2,2-dimethylpropyl)-1H-indol-3-yl]ethyl}sulfamoyl)dimethylamine], for which the 50% effective concentration (EC50) fell in the range of 500 to 3000 nM. Same read-out and setting: then `CC(C)Cn1cc(CCNS(=O)(=O)N(C)C)c2ccc(NC(=O)c3ccccc3)cc21` [Compound 71], with over 3000 nM; and `CC(C)(C)Cc1cn(CCNS(=O)(=O)C2CC2)c2ccc(-c3cccnc3)cc12` [Example 305, N-(2-(3-neopentyl-5-(pyridin-3-yl)-1H-indol-1-yl)ethyl)cyclopropanesulfonamide], with 500 to 3000 nM. On to `CN(C)S(=O)(=O)NCCc1cn(C)c2cc(-c3ccncc3)ccc12` [Example 128, N′-{2-[6-(pyridin-4-yl)-1-methyl-1H-indol-3-yl]ethyl}-N,N-dimethylsulfuric diamide], for which the concentration giving a half-maximal response (EC50) is 500 to 3000 nM.
